Source: patent publication US20100056523A1, “INHIBITORS OF AKT ACTIVITY” (SMITHKLINE BEECHAM CORPORATION, priority 2005, published 2010)
Structures can show the parent of a compound that is named as a salt.

Assays:
[1] = Solubility in 50 mM phosphate buffer at pH 7.4; assay type: physicochemical; conditions: suitability for IV dosage forms
[2] = test system: HFF (normal human foreskin fibroblast); assay: Methylene Blue Growth Inhibition Assay; assay type: cell-based; conditions: 72 h, HFF normal cells, 3 days incubation
Method: (§1) Tumor cell lines used in this assay were BT474 (human breast carcinoma) and LNCaP (lymph node metastasis of prostate cancer). HFF (normal human foreskin fibroblast) was also included. All cell lines were cultured in RPMI 1640 media (Invitrogen Corporation 22400-071) containing 10% Fetal Bovine Serum (FBS) at 37° C. in a humidified 5% CO2 incubator. Cells were harvested using trypsin/EDTA, counted using a hemacytometer and plated in 96-well tissue culture plates (Costar 35-3075), 100 uL per well, at the following densities: BT474 15,000 cells/well, LNCaP 5,000 cells/well and HFF 5,000 cells/well. 10 mM stocks of compounds in DMSO were serially diluted in DMSO through nine 3-fold dilutions in 96-well plates (Costar Corning 3363), and stored at −80 C. The next day, compound dilutions were thawed and 4 uL of each transferred to 662 uL RPMI 1640+100 ug/mL gentamicin, resulting in twice the final required test concentrations. 100 uL of compounds diluted in RPMI 1640 were added to all cell lines. The final concentration of DMSO in all wells, including controls, was 0.3%. Cells were incubated at 37 C, 5% CO2 for 3 days. Medium was removed by aspiration. Cell biomass was estimated by staining cells with 80 uL methylene blue (Sigma M9140, 0.5% in 50:50 ethanol:water), and incubating at room temperature for 1 hour. Stain was aspirated and the plates rinsed by immersion in water, then air-dried. Stain was released from cells by adding 100 uL of solubilizing solution (1% N-lauroyl sarcosine, sodium salt, Sigma L5125, in PBS) and incubating at room temperature for at least 30 minutes. Plates were shaken and the optical density at 620 nm was measured on a microplate reader. Percent inhibition of cell growth was calculated relative to vehicle-treated control wells. Concentration of compound that inhibits 50% of cell growth (IC50) was interpolated using non-linear regression (Levenberg-Marquadt) and the equation, y=Vmax*(1−(x̂n/K̂n+x̂n)))+Y2. [Ref: Mager, M. E. (1972) Data Analysis in Biochemistry and Biophysics. New York: Academic Press]

[3] = test system: LNCaP (lymph node metastasis of prostate cancer); assay: Methylene Blue Growth Inhibition Assay; assay type: cell-based; conditions: Homo sapiens, 72 h, 3 days incubation
Method: as §1

[4] = test system: BT474 (human breast carcinoma); assay: Methylene Blue Growth Inhibition Assay; assay type: cell-based; conditions: BT-474, 72 h, BT474, 3 days incubation
Method: as §1

Row | SMILES | IC50 [3] [nM] | IC50 [4] [nM] | solubility (assessment in words) [1] | IC50 [2] [nM]
1 | CCn1c(-c2nonc2N)nc2c(C#CC(C)(C)O)ncc(OC[C@@H]3CNCCO3)c21 [Example 4, 4-(2-(4-amino-1,2,5-oxadiazol-3-yl)-1-ethyl-7-{[(2S)-2-morpholinylmethyl]oxy}-1H-imidazo[4,5-c]pyridin-4-yl)-2-methyl-3-butyn-2-ol] | 15 | 37 | suitable for formulation into dosage forms for IV administration | > 25000
2 | CCn1c(-c2nonc2N)nc2c(C#CC(C)(C)O)ncc(OC[C@H]3CCCNC3)c21 [Example 1, 4-(2-(4-amino-1,2,5-oxadiazol-3-yl)-1-ethyl-7-{[(3S)-3-piperidinylmethyl]oxy}-1H-imidazo[4,5-c]pyridin-4-yl)-2-methyl-3-butyn-2-ol] | 16 | 484 | suitable for formulation into dosage forms for IV administration | > 20000
3 | CCn1c(-c2nonc2N)nc2c(C#CC(C)(C)O)ncc(OC[C@@H]3CNCCS3)c21 (single isomer, unassigned; enantiomer e1) [Example 3, 4-{2-(4-amino-1,2,5-oxadiazol-3-yl)-1-ethyl-7-[(2-thiomorpholinylmethyl)oxy]-1H-imidazo[4,5-c]pyridin-4-yl}-2-methyl-3-butyn-2-ol dihydrochloride (enantiomer E1)] | 4 | 6 | suitable for formulation into dosage forms for IV administration | > 30000
4 | CCn1c(-c2nonc2N)nc2c(C#CC(C)(C)O)ncc(OC[C@H]3CNCCO3)c21 [Example 2, 4-(2-(4-amino-1,2,5-oxadiazol-3-yl)-1-ethyl-7-{[(2R)-2-morpholinylmethyl]oxy}-1H-imidazo[4,5-c]pyridin-4-yl)-2-methyl-3-butyn-2-ol dihydrochloric acid salt] | 189 | 1000 |  | > 30000

The next lines start with results.

Row | IC50 [3] [nM] | IC50 [4] [nM] | SMILES | solubility (assessment in words) [1] | IC50 [2] [nM]
5 | 272 | 665 | CCn1c(-c2nonc2N)nc2c(C#CC(C)(C)O)ncc(OC[C@@H]3CN(C)CCO3)c21 [Example 8, 4-[2-(4-amino-1,2,5-oxadiazol-3-yl)-1-ethyl-7-({[(2S)-4-methyl-2-morpholinyl]methyl}oxy)-1H-imidazo[4,5-c]pyridin-4-yl]-2-methyl-3-butyn-2-ol] |  | > 30000
6 | 459 | 1030 | CCn1c(-c2nonc2N)nc2c(C#CC(C)(C)O)ncc(OCC3CCNC3)c21 (stereo not shown) [Example 5, 4-[2-(4-amino-1,25-oxadiazol-3-yl)-1-ethyl-7-[(3-Pyrrolidinylmethyl)oxy]-1H-imidazo[4,5-c]pyridin-4-yl]-2-methyl-3-butyn-2-ol, bis-trifluoroacetic acid salt] |  | 20100
7 | 53 | 324 | CCn1c(-c2nonc2N)nc2c(C#CC(C)(C)O)ncc(OC[C@H]3CCCN(C)C3)c21 [Example 6, 4-[2-(4-amino-1,2,5-oxadiazol-3-yl)-1-ethyl-7-({[(3S)-1-methyl-3-piperidinyl]methyl}oxy)-1H-imidazo[4,5-c]pyridin-4-yl]-2-methyl-3-butyn-2-ol, dihydrochloride] |  | 16800
8 | 49 | 80 | CCn1c(-c2nonc2N)nc2c(C#CC(C)(C)O)ncc(OCC3CNCC(C)O3)c21 (stereo in doubt) [Example 9, 4-[2-(4-amino-1,2,5-oxadiazol-3-yl)-1-ethyl-7-({[(2R)-6-methyl-2-morpholinyl]methyl}oxy)-1H-imidazo[4,5-c]pyridin-4-yl]-2-methyl-3-butyn-2-ol, dihydrochloride] | suitable for formulation into dosage forms for IV administration | 9390
9 | 83 | 186 | CCn1c(-c2nonc2N)nc2c(C#CC(C)(C)O)ncc(OC[C@@H]3CN(C)CCS3)c21 (single isomer, unassigned; enantiomer e1) [Example 7, 4-(2-(4-amino-1,2,5-oxadiazol-3-yl)-1-ethyl-7-{[(4-methyl-2-thiomorpholinyl)methyl]oxy}-1H-imidazo[4,5-c]pyridin-4-yl)-2-methyl-3-butyn-2-ol (enantiomer E1)] |  | > 30000
